Values joined by “and” are separate entries in the source; they are usually repeats but may differ in a detail not shown here. Identical values can stand only once.
Legend:
Format in all cases: cell-based, human
[1] = system: Ls174T into which siRNA had been introduced; assay: Sensitivity to oxaliplatin after introduction of siRNA, MTS assay; conditions: for sensitivity to oxaliplatin compared to the case where the control siRNA had been introduced: 150 pmol siRNA per well
Experimental: (§1) The aforementioned nine human colorectal cancer cell lines were respectively inoculated onto a 96 well plate at a density of 1,500 cells/well, and after 24 hours, oxaliplatin was added thereto. The cell survival rate after 48 hours of drug exposure was evaluated by the MTS assay (CellTiter96™ AQueous One Solution Cell Proliferation Assay, Promega), and the IC50 values were determined from the absorbance values. Regarding the drug exposure conditions, eleven conditions such as Control (0 μM), 0.001 μM, 0.01 μM, 0.1 μM, 0.3 μM, 1 μM, 3 μM, 10 μM, 30 μM, 100 μM, and 1,000 μM were used. The evaluation of sensitivity was performed three times with cells of different passage numbers, by measuring three samples each for the respective cell lines, drug exposure time, and drug exposure conditions in a single time test. An analysis was carried out based on the survival rate calculated from the results of the MTS assay.
(§2) Among the nine kinds of colorectal cancer cell lines described in Test Example 1, Ls174T was used as an oxaliplatin-high-sensitivity cell line, HCT116 was used as a moderate-sensitivity cell line, and HT29 and DLD-1 were used as low-sensitivity cell lines.
(§3) Each of the human colorectal cancer cell lines was inoculated into a 6-well plate at a density of 1×10^5 cells/well, and after 24 hours, the medium was replaced with serum-free DMEM medium (Wako, 044-29765). A solution obtained by dissolving 150 pmol per well of each of the siRNAs indicated in Table 8 in 250 μL of Opti MEM (GIBCO, No. 319985) was mixed with a solution obtained by mixing 4.5 μL of Lipofectamin RNAiMAX Reagent (Invitrogen, No. 13778-150) and 250 μL of Opti MEM (GIBCO, No. 319985). The resultant mixture was incubated for 10 to 20 minutes. After incubation, 500 μL each of the mixture was added to each well of the 6-well plate on which the human colorectal cancer cell lines were cultured, and the medium in each well was replaced with a serum-added DMEM medium (Wako, 044-29765) 4 to 6 hours after the addition. The cells were collected 24 hours after the addition of siRNA.
(§4) Regarding the control siRNA, siRNA of No. 4390843 of Life Technologies, Inc. was used.
(§5) Measurement of the sensitivity to oxaliplatin (measurement of IC50 values) of the human colorectal cancer cell lines into which siRNA had been introduced, was performed by the method described in Test Example 1(1)(c).

[2] = system: HCT116 into which siRNA had been introduced; assay: as above; conditions: for sensitivity to oxaliplatin compared to the case where the control siRNA had been introduced: HCT116, 150 pmol siRNA per well
Experimental: as §1, §2, §3, §4, §5

[3] = system: DLD-1 into which siRNA had been introduced; assay: as above
Experimental: as §1, §2, §3, §4, §5

[4] = system: HT29 into which siRNA had been introduced; assay: as above; conditions: for sensitivity to oxaliplatin compared to the case where the control siRNA had been introduced: HT29, 150 pmol siRNA per well
Experimental: as §1, §2, §3, §4, §5

HT29 = assay: Sensitivity to oxaliplatin, MTS assay; conditions: HT29, 48 hours of drug exposure, cell survival rate by MTS assay
Experimental: (§6) Nine human colorectal cancer cell lines (SW480, Ls174T, Lovo, SW620, HCT116, HCT15, HT29, DLD-1, and WiDr) were obtained from the following sources (Table 1).
(§7) Culture was carried out under the conditions of 0100 mm/Tissue Culture Dish (IWAKI), culture medium (D-MEM, 2 mM Glutamine, 10% Fetal Bovine Serum), 37° C., and 5% CO2.
as §1

WiDr = assay: Sensitivity to oxaliplatin, MTS assay; conditions: 48 hours of drug exposure, cell survival rate by MTS assay
Experimental: as §6, §7, §1

Ls174T = assay: Sensitivity to oxaliplatin, MTS assay; conditions: 48 hours of drug exposure, cell survival rate by MTS assay
Experimental: as §6, §7, §1

DLD-1 = assay: Sensitivity to oxaliplatin, MTS assay; conditions: DLD-1, 48 hours of drug exposure, cell survival rate by MTS assay
Experimental: as §6, §7, §1

SW620 = assay: Sensitivity to oxaliplatin, MTS assay; conditions: SW620, 48 hours of drug exposure, cell survival rate by MTS assay
Experimental: as §6, §7, §1

HCT15 = assay: Sensitivity to oxaliplatin, MTS assay; conditions: HCT15, 48 hours of drug exposure, cell survival rate by MTS assay
Experimental: as §6, §7, §1

SW480 = assay: Sensitivity to oxaliplatin, MTS assay; conditions: SW480, 48 hours of drug exposure, cell survival rate by MTS assay
Experimental: as §6, §7, §1

HCT116 = assay: Sensitivity to oxaliplatin, MTS assay; conditions: HCT116, 48 hours of drug exposure, cell survival rate by MTS assay
Experimental: as §6, §7, §1

Lovo = assay: Sensitivity to oxaliplatin, MTS assay; conditions: 48 hours of drug exposure, cell survival rate by MTS assay
Experimental: as §6, §7, §1

O=C1[O][Pt]2([NH][C@@H]3CCCC[C@H]3[NH]2)[O]C1=O [oxaliplatin, (SP-4-2)-[(1R,2R)-cyclohexane-1,2-diamine-κN, κN′] [ethanedio ato(2-)-κO^1, κO^2]platinum]
IC50 ([1]; Control siRNA introduced): 860 nM and 680 nM | IC50 ([1]; IPYR siRNA introduced): 390 nM | IC50 ([1]; PHB siRNA introduced): 11900 nM | IC50 ([1]; TALDO siRNA introduced): 430 nM | IC50 ([2]; HCT116, ANXA5 siRNA introduced): 760 nM | IC50 ([2]; HCT116, C1QBP siRNA introduced): 2180 nM | IC50 ([2]; HCT116, Control siRNA introduced): 1720 nM and 1390 nM and 1530 nM and 1340 nM | IC50 ([2]; HCT116, PHB siRNA introduced): 21500 nM | IC50 ([2]; HCT116, TALDO siRNA introduced): 730 nM | IC50 ([3]; DLD-1, Control siRNA introduced): 14700 nM | IC50 ([3]; DLD-1, PHB siRNA introduced): 52300 nM | IC50 ([4]; HT29, ANXA5 siRNA introduced): 5350 nM | IC50 ([4]; HT29, Control siRNA introduced): 16100 nM | IC50 ([4]; HT29, PHB siRNA introduced): 41900 nM | IC50 ([4]; HT29, TALDO siRNA introduced): 2770 nM | IC50 (HT29): 7990 ± 2660 nM | IC50 (WiDr): 17700 ± 8390 nM | IC50 (Ls174T): 610 ± 110 nM | IC50 (DLD-1): 13900 ± 6290 nM | IC50 (SW620): 1140 ± 740 nM | IC50 (HCT15): 1450 ± 440 nM | IC50 (SW480): 430 ± 130 nM | IC50 (HCT116): 1150 ± 340 nM | IC50 (Lovo): 790 ± 180 nM

ANXA5 siRNA: siRNA GUACAUGACUAUAUCAGGAtt (life technologies, s1392), SEQ ID NO: 2 (GUACAUGACUAUAUCAGGATT; chemistry not given here)
sensitivity to oxaliplatin compared to the case where the control siRNA had been introduced [2]: enhanced | sensitivity to oxaliplatin compared to the case where the control siRNA had been introduced [4]: enhanced

C1QBP siRNA: siRNA GGCCUUAUAUGACCACCUAtt (life technologies, s2139), SEQ ID NO: 4 (GGCCUUAUAUGACCACCUATT; chemistry not given here)
sensitivity to oxaliplatin compared to the case where the control siRNA had been introduced [2]: decreased

IPYR siRNA: siRNA GGAAUCAGUUGCAUGAAUAtt (life technologies, s10878), SEQ ID NO: 5 (GGAAUCAGUUGCAUGAAUATT; chemistry not given here)
sensitivity to oxaliplatin compared to the case where the control siRNA had been introduced [1]: enhanced

PHB siRNA: siRNA CGUGGGUACAGAAACCAAUtt (life technologies, s10424), SEQ ID NO: 1 (CGUGGGUACAGAAACCAAUTT; chemistry not given here)
sensitivity to oxaliplatin compared to the case where the control siRNA had been introduced [1]: decreased | sensitivity to oxaliplatin compared to the case where the control siRNA had been introduced [2]: decreased | sensitivity to oxaliplatin compared to the case where the control siRNA had been introduced ([3]; DLD-1, 150 pmol siRNA per well): decreased | sensitivity to oxaliplatin compared to the case where the control siRNA had been introduced [4]: decreased

TALDO siRNA: siRNA UGCUAUUGAUAAACUUUUUtt (life technologies, s13776), SEQ ID NO: 3 (UGCUAUUGAUAAACUUUUUTT; chemistry not given here)
sensitivity to oxaliplatin compared to the case where the control siRNA had been introduced [1]: enhanced | sensitivity to oxaliplatin compared to the case where the control siRNA had been introduced [2]: enhanced | sensitivity to oxaliplatin compared to the case where the control siRNA had been introduced [4]: enhanced
